Values of other authors, collected in patent publication US7691896B2, “Analogs of salinosporamide A” (President and Fellows of Harvard College, priority 2005, dated 2010).
Peptide text beside a SMILES is read from it. * marks the point of attachment. Cbz = O=C(OCc1ccccc1)*

Test system: PC12 cells
Conditions: Tsubuki et al. 1993

In the case of `CC(C)C[C@@H](C=O)NC(=O)[C@H](CC(C)C)NC(=O)[C@H](CC(C)C)NC(=O)OCc1ccccc1` [benzyloxycarbonyl (Z)-Leu-Leu-leucinal] (Cbz-Leu-Leu-Leu-aldehyde), the “optimal concentration inducing neurite outgrowth” value is given as 30 nM.
